Experiment [1] deals with GTM-3 cells. The experiment can be described thus: Fibronectin ELISA of culture supernatants from treated GTM-3 cell monolayers (TGFβ2 mediated responses). Type of experiment: cell-based, human. To be noted: GTM-3 monolayers, 24 h; for TGFβ2-stimulated fibronectin levels in supernatants: FIG. 1. The method, then:
FIG. 1A, FIG. 1B and FIG. 1C depict the effects of various amounts of PKC inhibitors on basal and stimulated (TGFβ2) fibronectin content in supernatants collected from treated monolayers of GTM-3 cells.
(§1) Cultured transformed human TM cells (“GTM-3”; see Pang I H, et al., 1994) were grown in a growth medium consisting of Dulbecco's modified Eagle's medium with Glutamax I (Gibco/Invitrogen, Grand Island, N.Y.) supplemented with 10% fetal bovine serum (Hyclone, Logan, Utah) and 50 μg/mL gentamicin (Gibco/Invitrogen). For assay, cultures were enzymatically-dissociated (TrypLE Express; Gibco/Invitrogen) then seeded into 24-well plates (Corning Costar, Acton, Mass.) and allowed to grow until monolayers reached approximately 90-95% confluence. Culture medium was then replaced with 0.25 mL serum- and antibiotic-free medium containing the appropriate test compound(s). Cells were incubated 24 h, at 5% CO2 and 37° C. Aliquots of culture supernatants were then assayed using ELISA kits for fibronectin (AssayPro, St. Charles, Mo.), PAI-I (American Diagnostica, Stamford, Conn.) and procollagen Type I C-peptide (TaKaRa Bio, Shiga, Japan).
(§2) The test compounds used were rottlerin (a specific PKC-delta inhibitor), Gö6976 (inhibits the calcium-dependent PKC isoforms alpha, beta, & mu) and bisindolylmaleimide I (a broad-spectrum PKC inhibitor).
(In general: An ELISA detects its analyte on a solid surface through an enzyme-linked reagent.)

The test system of experiment [2] is GTM-3 cells. The experiment in a line: PAI-I ELISA of culture supernatants from treated GTM-3 cell monolayers (TGFβ2 mediated responses). The class given is cell-based, human. To be noted: GTM-3 monolayers, 24 h; for TGFβ2-stimulated PAI-I levels in supernatants: FIG. 2. As for the experimental part: FIG. 2A, FIG. 2B and FIG. 2C depicts the effects of PKC inhibition on basal and stimulated (TGFβ2) PAI-I content in supernatants collected from treated monolayers of GTM-3 cells.
as §1, §2

As to `Cn1c2ccccc2c2c3c(c4c5ccccc5n(CCC#N)c4c21)CNC3=O` [Gö6976], the “TGFβ2-stimulated fibronectin levels in supernatants” value with GTM-3 cells [1] is reported as “without effect”. The “basal fibronectin content in supernatants” value in the experiment with GTM-3 cells [1] (basal, FIG. 1B) was “without effect”. In the experiment with GTM-3 cells [2], the “TGFβ2-stimulated PAI-I levels in supernatants” value (“TGFβ2-stimulated PAI-I levels” below) was “without effect”. Moreover, the “basal PAI-I content in supernatants” value with GTM-3 cells [2] (basal, FIG. 2B) is “without effect”.

`CN(C)CCCn1cc(C2=C(c3c[nH]c4ccccc34)C(=O)NC2=O)c2ccccc21` [Bis I, bisindolylmaleimide I]: the “fibronectin levels in supernatants” value with GTM-3 cells [1] (basal and TGFβ2-stimulated, tested concentrations, FIG. 1C) is recorded as “lack of effect”. The “TGFβ2-stimulated PAI-I levels” value with GTM-3 cells [2] is reported as “reduced TGFβ2-stimulated PAI-I levels only at the 100 nM dose”.

Turning to `CC(=O)c1c(O)c(C)c(O)c(Cc2c(O)c3c(c(C(=O)/C=C/c4ccccc4)c2O)OC(C)(C)C=C3)c1O` [rottlerin], the “TGFβ2-stimulated fibronectin levels in supernatants” value in the experiment on GTM-3 cells [1] is “effectively reduces TGFβ2-stimulated fibronectin levels at both tested concentrations”. The “basal fibronectin in supernatants” value with GTM-3 cells [1] (basal, 10 uM dose, FIG. 1A) is “effectively reduced basal fibronectin”. Also, the “TGFβ2-stimulated PAI-I levels” value with GTM-3 cells [2] is “dose-dependently reduces TGFβ2-stimulated PAI-I levels”.

The values are drawn from US20080153903A1, “INHIBITORS OF PROTEIN KINASE C-DELTA FOR THE TREATMENT OF GLAUCOMA” (ALCON MANUFACTURING, LTD., priority 2006, published 2008).
